Data: patent US20120208848A1 (NEUROSYSTEC CORPORATION, priority 2005, published 2012)

Key:
Assay type in all cases: physicochemical
[1] = Solubility of gacyclidine chloride salt and free base in water / Ringer's solution
Excerpt: The free base form of gacyclidine is poorly soluble in water and adheres to plastic surfaces.

[2] = Maintenance of gacyclidine in solution (HPLC solution concentration over time); conditions: 20° C.
Protocol: Gacyclidine was detected using a Surveyor HPLC system (Thermo Electron). A Grace Vydac C8 MASS SPEC column (cat #208MS5210; S/N NE981208-3-7) purchased from The Nest Group (Southboro, Mass.) was employed for these analyses. The chromatographic column was maintained at 30° C. Samples were prepared in 12 mm×32 mm autosampler vials (Thermo Electron, A4954-010) and maintained at 20° C. in the autosampler.
For maximum accuracy, a ‘full-loop’ injection protocol was employed, in which 80.7 μL was withdrawn from the vial to over-fill a 20 μL injection loop. The entire sample contained in the 20 μL injection loop was applied to the C8 chromatography column. The sample was then eluted at a flow rate of 300 μL/min with a step gradient composed of water containing 0.1% (volume/volume) trifluoroacetic acid (buffer A) and acetonitrile containing 0.1% (volume/volume) trifluoroacetic acid (buffer B). The step gradient consisted of elution with 100% buffer A from 0 to 5 minutes; 80% buffer A-20% buffer B from 5 to 15 minutes; 100% buffer B from 15 to 20 minutes and 100% buffer A from 20 to 25 minutes.
The column eluant was monitored at 234 nm by use of a Thermo Electron PDA UV detector. […] The presence of gacyclidine was confirmed by connecting the column eluant, after passage through the UV detector, to an AQA mass spectrometer (Thermo Electron).
An aliquot (10 μL) of these solutions was then added to 10.0 mL of either Ringer's Lactate (pH 6.6), Ringer's Lactate containing 100 μM NaOH (pH 7.5), or 0.1 N HCl (pH 1.0) to give a final drug concentration of 100 μM. Aliquots of these drug solutions were transferred to autosampler vials and maintained at 20° C. until being analyzed by HPLC.

[3] = Solubility of gacyclidine as a function of pH and excipients, room temperature, glass vials
Protocol: Thereafter the mixture remained standing at room temperature for two days.
The pH of the mixture was determined by use of a SympHony glass calomel micro combination pH electrode obtained from VWR (Cat. No. 14002-776). Oakton standard reference solutions at pH 7.00±0.01 (25° C.; 7.02 at 20° C.), 4.01±0.01 (25° C.; 4.00 at 20° C.) and 10.00 (25° C.; 10.05 at 20° C.) were obtained from Cole-Parmer. These standard pH solutions were used to calibrate a Cole-Parmer Model 5996-60 analog pH meter equipped with a SympHony electrode to within 0.01 pH units of reference solutions.

[4] = Loss of 25 μM gacyclidine in polypropylene vials with and without SOLUTOL HS 15; conditions: 0.15 M NaCl, 37° C., one or three days
Protocol: Some of these solutions also contained 0.1% SOLUTOL® HS 15.
Although the results after three days of incubation parallel those obtained after one day of incubation at 37° C., the increased loss observed at low pH in the samples incubated for three days presumably reflected losses due to decomposition.

[5] = Gacyclidine decomposition in Ringer's Lactate at 37° C.
Protocol: To monitor piperidine formation a Zorbax SB-CN column (25×0.46 cm, 5 μm; PN 880975, SN USS F01 3866) purchased from Agilent Technologies was maintained at 30° C. and eluted with a mixture composed of 50% Buffer A and 50% Buffer B at 150 μL/minute for 60 minutes. Buffer A was composed of water containing 0.1% trifluoroacetic acid and Buffer B was composed of acetonitrile containing 0.1% trifluoroacetic acid. The effluent from this column was interfaced with an AQA single quadrupole mass spectrometer (Thermo Electron) and a Surveyor PDA detector (UV monitor, Thermo Electron). The column effluent was monitored at 232 nm and scans were collected between 200 to 300 nm by use of the PDA detector. […] Piperidine was detected by the mass spectrometer at 16.0 minutes after injection onto the Zorbax SB-CN column (at m/z=86 only). Piperidine could not be detected by use of the PDA (UV monitor).
The pH of these Ringer's Lactate solutions was adjusted by addition of hydrochloric acid or sodium bicarbonate ([…]). […] To analyze these samples for gacyclidine and piperidine, the samples were first extracted with methylene chloride and then back-extracted into dilute hydrochloric acid. To the 0.40 mL sample to be analyzed were added 50 μL of 1.0 M sodium hydroxide and 0.8 mL of methylene chloride. After vigorous mixing, the aqueous and methylene chloride layers were allowed to separate. To 0.4 mL of the methylene chloride phase were added 20 μL of 1.0 M hydrochloric acid and 0.78 mL of water. After vigorous mixing, the aqueous and methylene chloride layers were allowed to separate and the aqueous layer was analyzed for gacyclidine and piperidine. This extraction procedure was necessary to remove the salt present in the sample for optimum detection of piperidine.

[6] = Effect of pH on gacyclidine decomposition and solubility in Ringer's solution at 55° C.; conditions: 100 μM in Ringer's solution, 24 hours, pH 7.3 to 8.1, no excipient
Protocol: These samples were then incubated at 55° C. for 24 hours.
The pH of each sample was determined at 55° C. by use of a pH meter standardized at 55° C. The pH meter, electrode and standards were the same as described in Example 3.

[7] = excess free base added to a solution at physiological pH

Q: Which results are given for CC1CCCCC1(c1cccs1)N1CCCCC1.Cl (stereo not shown) [gacyclidine, 1-(2-methyl-1-thiophen-2-yl-cyclohexyl)-piperidine hydrochloride]?
A: pH of solution ([1]; chloride salt, up to 150 mg/ml in water or unbuffered solution): about 4.4; final concentration of dissolved gacyclidine [1, 7]: ≤ 0.02 mg/mL; pH of solution [1, 7]: ≤ 7.7; solubility ([1]; pH 4.4, chloride salt of the acid form, water or unbuffered Ringer's solution, read-out: solubility (solutions containing up to)): ≤ 150000 µg/mL; gacyclidine remaining in solution (HPLC) ([1]; pH 9.5, 0.05 M CAPSO, 0.1 M NaCl, 0.3 mg/mL added, room temperature, 2 days): 0.0006 mg/mL; solubility thermodynamic ([1]; saline or isotonic, thermodynamic from solid, free base in Ringer's solution reacting with dissolved carbon dioxide, pH 7.6): ~20 µg/mL; concentration of gacyclidine ([2]; DMSO stock 1:1000 (0.1% DMSO), Ringer's Lactate pH 7.5, 100 μM initial, 0-3 hours): 97.5 µM; concentration of gacyclidine ([2]; DMSO stock 1:1000, 0.1N HCl (pH 1.0), 100 μM initial, 0-3 hours): 100.3 µM; concentration of gacyclidine ([2]; DMSO stock 1:1000, 0.1N HCl (pH 1.0), 100 μM initial, 3-6 hours): 100.2 µM; concentration of gacyclidine ([2]; DMSO stock 1:1000, 0.1N HCl (pH 1.0), 100 μM initial, 16-19 hours): 100.6 µM; concentration of gacyclidine ([2]; DMSO stock 1:1000, Ringer's Lactate pH 6.6, 100 μM initial, 0-3 hours): 96.0 µM; concentration of gacyclidine ([2]; DMSO stock 1:1000, Ringer's Lactate pH 6.6, 100 μM initial, 3-6 hours): 94.9 µM; concentration of gacyclidine ([2]; DMSO stock 1:1000, Ringer's Lactate pH 6.6, 100 μM initial, 16-19 hours): 91.3 µM; concentration of gacyclidine ([2]; DMSO stock 1:1000, Ringer's Lactate pH 7.5, 100 μM initial, 3-6 hours): 90.4 µM; concentration of gacyclidine ([2]; DMSO stock 1:1000, Ringer's Lactate pH 7.5, 100 μM initial, 16-19 hours): 79.3 µM; concentration of gacyclidine ([2]; aqueous stock 1:1000, 0.1N HCl (pH 1.0), 100 μM initial, 0-3 hours): 99.4 µM; concentration of gacyclidine ([2]; aqueous stock 1:1000, 0.1N HCl (pH 1.0), 100 μM initial, 3-6 hours): 99.8 µM; concentration of gacyclidine ([2]; aqueous stock 1:1000, 0.1N HCl (pH 1.0), 100 μM initial, 16-19 hours): 100.2 µM; concentration of gacyclidine ([2]; aqueous stock 1:1000, Ringer's Lactate pH 6.6, 100 μM initial, 0-3 hours): 95.1 µM; concentration of gacyclidine ([2]; aqueous stock 1:1000, Ringer's Lactate pH 6.6, 100 μM initial, 3-6 hours): 92.6 µM; concentration of gacyclidine ([2]; aqueous stock 1:1000, Ringer's Lactate pH 6.6, 100 μM initial, 16-19 hours): 87.7 µM; concentration of gacyclidine ([2]; aqueous stock 1:1000, Ringer's Lactate pH 7.5, 100 μM initial, 0-3 hours): 88.2 µM; concentration of gacyclidine ([2]; aqueous stock 1:1000, Ringer's Lactate pH 7.5, 100 μM initial, 3-6 hours): 72.0 µM; concentration of gacyclidine ([2]; aqueous stock 1:1000, Ringer's Lactate pH 7.5, 100 μM initial, 16-19 hours): 59.7 µM; gacyclidine remaining in solution at high pH ([3]; 0.1% CAPTISOL, 1 mM added, room temperature, two days, glass): about 14 μM; gacyclidine remaining in solution at high pH ([3]; 0.1% SOLUTOL HS15, 1 mM added, room temperature, two days, glass): ~96 μM; gacyclidine remaining in solution at high pH ([3]; 0.1% TWEEN 80, 1 mM added, room temperature, two days, glass): ~42 μM; gacyclidine base maintained in solution per gram of carrier molecule ([3]; CAPTISOL, room temperature): 0.004 grams per gram of carrier mole; gacyclidine base maintained in solution per gram of carrier molecule ([3]; SOLUTOL HS 15, room temperature): 0.02 grams per gram of carrier mole; gacyclidine base maintained in solution per gram of carrier molecule ([3]; TWEEN 80, room temperature): 0.01 grams per gram of carrier mole; solubility kinetic at 2 days ([3]; buffered aqueous solution, aqueous buffer, kinetic from dmso stock, pH 9.7, 1 mM added, room temperature, two days, glass, presence or absence of 0.1% SOLUPHOR P): 2.6 µM; pH above which precipitation of gacyclidine was observed ([3]; hydrochloride salt diluted to 1 mM in buffered aqueous solution): > 7; gacyclidine remaining in solution, % of the added gacyclidine ([3]; pH 9.7, 1 mM added, room temperature, two days, glass, presence or absence of 0.1% SOLUPHOR P): 0.26%; solubility ([3]; thermodynamic from solid, hydrochloride salt, water, read-out: final concentration giving a clear solution in water): ≥ 550000 µM; effect of 0.1% SOLUTOL on losses of gacyclidine from solution [4]: no effect; pH above which losses of gacyclidine were observed [4]: > 6; pKa ([5]; Ringer's Lactate solution, 37° C., from decomposition rates, read-out: apparent pKA): 7.6; Time for 10% Loss (37° C., Ringer's Lactate) ([5]; pH 5.5, 100 μM gacyclidine): 3.7 ± 0.1 days; Time for 10% Loss (37° C., Ringer's Lactate) ([5]; pH 6.0, 100 μM gacyclidine): 3.82 ± 0.03 days; Time for 10% Loss (37° C., Ringer's Lactate) ([5]; pH 7.4, 100 μM gacyclidine): 6.1 ± 0.4 days; decomposition rate as % of the rate expected for the acid form ([5]; pH 7.4, 37° C., Ringer's Lactate): 62%; fraction of gacyclidine in the acid form ([5]; pH 7.4 and 37° C.): 62%; loss of gacyclidine from solution [6]: loss of gacyclidine both by decomposition and by precipitation from solution
